Laboratory results from patent US20220323400A1, “INHIBITORS OF SGLT AND USES THEREOF” (The Regents of the University of Michigan, priority 2019, published 2022).

What was measured:
[1] = rabbit, in vivo
CF rabbits [2] = experiment: Urinary glucose excretion in CF rabbits treated with LX4211; assay type: in vivo, rabbit; conditions: 15 mg/kg/day daily gavage
Protocol: (§1) ) has beneficial effects on treating CF, 5 CF rabbits were daily gavaged with LX4211 (15 mg/kg/day) for 4 weeks. The intravenous glucose tolerance test (IVGTT) and insulin tolerance test (ITT) were performed before treatment and at 4 weeks after treatment. Urine was collected daily to assess urinary glucose excretion. Blood was collected biweekly for the analysis of chemical panels including glucose, insulin, liver function, kidney function, lipid profiles and electrolytes. At the end of the experiment, the organ tissues of CF rabbits were collected for histology staining.

CF rabbits [3] = experiment: Survival length of CF rabbits treated with LX4211; assay type: in vivo, rabbit; conditions: FIG. 3
CF rabbits [4] = experiment: IVGTT in CF rabbits prior to and after Sota treatment; assay type: in vivo, rabbit; conditions: CF rabbits (n=6), 15 mg/kg/day daily gavage 4 weeks, vs non-treatment, FIGS. 10B & C
Protocol: Experiments were conducted that next proceeded to treat CF rabbits (n=6) with Sota (15 mg/kg/day) by daily gavage for 4 weeks (FIG. 10A). The IVGTT test was performed prior to and 4 weeks after treatment.

CF rabbits [5] = assay type: in vivo, rabbit
Protocol: as §1
Because most CF rabbits eventually die of gut obstruction for which abdominal hardening (which can be felt by palpation) has been used as a clinical sign, such softening may indicate beneficial effects on alleviating GI obstruction, although further studies are needed to confirm this predication.

CF rabbits [6] = experiment: Blood chemistry of CF rabbits treated with Sota for 10 weeks; assay type: in vivo, rabbit; conditions: 5 CF rabbits treated 10 weeks vs untreated control group, FIG. 11
Excerpt: It is known that many CF patients show abnormalities in their blood chemistry tests. Blood chemistry in CF rabbits was also examind. In one study, blood was collected from 5 CF rabbits for the analysis of chemical panels including electrolytes, glucose and other metabolic parameters, and compared with those of WT rabbits (n=15). CF rabbits presented many abnormalities in metabolic parameters including lower serum potassium (WT 4.35±0.25 vs. CF 3.14±0.3, p<0.05), higher triglyceride (WT 75.8±69.5 vs. CF 447.0±76.6, p<0.05), cholesterol (WT 31.6±9.76 vs. CF 177.2±206.3, p<0.05) and glucose (WT 110.4±9.99 vs. CF 160.6±37.5, p<0.05). Abnormalities of serum ALP, CPK and Calcium were also detected in CF rabbits.
To evaluate if Sota has any effects on the blood chemistry parameters of CF rabbits, experiments were conducted wherein 5 CF rabbits were treated with Sota for 10 weeks.

CF rabbits [7] = experiment: Lifespan (survival curve) of Sota-treated CF rabbits; assay type: in vivo, rabbit; conditions: treatment starting on Day 49 of age
Excerpt: This is further supported by the elongated lifespan of Sota-treated CF rabbits. […] These findings indicate that contrary to the beliefs by many, the SGLT inhibitor drugs are indicative of bringing benefits with minimal risks to CF patients.

CF rabbits [8] = experiment: Intravenous glucose tolerance test (IVGTT) in CF rabbits treated with LX4211; assay type: in vivo, rabbit; conditions: FIG. 1
Protocol: as §1

CF rabbits [9] = experiment: Blood chemical panels in CF rabbits treated with LX4211; assay type: in vivo, rabbit
Protocol: as §1
Abnormalities of serum ALP, CPK and Calcium were also detected in CF rabbits.

WT rabbits = experiment: Urine sugar levels in WT rabbits after Sota treatment; assay type: in vivo, rabbit; conditions: WT rabbits (n=2)
Protocol: Experiments were conducted that first examined the physiological responses of rabbits to Sota by measuring the urine sugar levels to assess urinary glucose excretion (FIG. 9). Sota was given to WT rabbits (n=2) daily for five days. […] This confirmed that rabbits respond to Sota similarly as rodents and human patients.

With Sotagliflozin [LX4211] the weight gain [1] was “gained weight at a similar rate”, the urine glucose levels (CF rabbits [2]) was “spiked starting D1 after the treatment” and the survival length (CF rabbits [3]) was “improved survival length”. For the same substance, the “blood glucose elimination rate (IVGTT)” value (CF rabbits [4]) was “significantly higher”, the daily abdominal palpation (CF rabbits [5]; CF rabbits, 15 mg/kg/day daily gavage, abdominal hardening is a clinical sign of gut obstruction) was “softening of the abdominal” and the “adverse response to treatment” value (CF rabbits [5]; rabbit, in vivo, 15 mg/kg/day) was “no obvious adverse response”. For the same substance, the ALP (CF rabbits [6]) was “significantly improved”, the CPK (CF rabbits [6]) was “significantly improved” and the Chol (CF rabbits [6]) was “significantly improved”. The Glucose (CF rabbits [6]) was “significantly improved”, the “K+” value (CF rabbits [6]) was “significantly improved” and the Trig (CF rabbits [6]) was “significantly improved”. The median lifespan (CF rabbits [7]; CF rabbits (n=10), FIG. 12 right panel) was over 150 days, the “number of treated CF rabbits that lived beyond 150 days” value (CF rabbits [7]; of n=10 CF rabbits) was 6 and the glucose tolerance (CF rabbits [8]; CF rabbits, 15 mg/kg/day, before vs 4 weeks after treatment) was “restored glucose tolerance”. The “GTT response of one CF rabbit with signs of CF related diabetes (CFRD)” value (CF rabbits [8]; one CF rabbit, prior to vs after treatment) was “restored to normal”, the CPK (CF rabbits [9]; 15 mg/kg/day, FIG. 4) was “significant rescue effects” and the Calcium (CF rabbits [9]; 15 mg/kg/day, FIG. 4) was “significant rescue effects”. The cholesterol (CF rabbits [9]; 15 mg/kg/day, FIG. 4) was “significant rescue effects”, the triglyceride (CF rabbits [9]; 15 mg/kg/day, FIG. 4) was “significant rescue effects” and the “hyperglycemia (glucose)” value (CF rabbits [9]; 15 mg/kg/day, FIG. 4, FIG. 5) was “significantly attenuated”. For the same substance, the “hypokalemia (serum potassium)” value (CF rabbits [9]; 15 mg/kg/day, FIG. 4, FIG. 5) was “significantly attenuated”, the “ALB (Albumin)” value (CF rabbits [9]; FIG. 6) was “restored” and the “TPRO (Total Protein)” value (CF rabbits [9]; FIG. 6) was “restored”. For the same substance, the “urine sugar level upon retrieval of the drug” value (WT rabbits; D7, FIG. 9) was “immediately returned to normal” and the “urine sugar level during treatment” value (WT rabbits; daily for five days, D1-D5, FIG. 9) was “spike of urine sugar level was seen the second day (D1) and remained high during the treatment days”.
